Laboratory results as given in patent US9090586B2, “Heterocyclic compound” (TAKEDA PHARMACEUTICAL COMPANY LIMITED, priority 2010, dated 2015).

How the values were obtained:
[1] = target: T1, human PDE10A enzyme (Homo sapiens, UniProt Q9Y233); experiment: PDE10A enzyme activity inhibition test (SPA); assay type: biochemical; conditions: for inhibition at 0.1 µM: 100 nM compound, read-out: Inhibition rate (%) (100 nM); for IC50: [3H]cGMP substrate
T1 construct: Human PDE10A full-length gene was transfected into Sf9 or COS-7 cells; His-tag; made in house; host or cells: Sf9 or COS-7 cells
Description: Human PDE10A full-length gene was transfected into Sf9 or COS-7 cells, the cells were disrupted and centrifuged, and human PDE10A enzyme was obtained from the residue. The enzyme extracted from Sf9 cells was partially purified using His-tag affinity column. The enzyme was stored at −70° C. until use. The PDE activity was measured using an SPA (Scintillation Proximity Assay) (GE Healthcare). To measure the inhibitory activity of the compound, 10 μL of serially diluted compound was reacted with 20 μL of PDE enzyme in an assay buffer (50 mM HEPES-NaOH, 8.3 mM MgCl2, 1.7 mM EGTA, 0.1% BSA (pH 7.4)) […] at room temperature. The final concentration of DMSO in the reaction mixture was 1 percent. The compounds were evaluated in duplicate in 96-well half-area plates (Corning). To start the reaction, 10 μL of substrate [^3H] cGMP (25 and 50 nM; GE Healthcare and PerkinElmer, respectively) was added to 40 μL. After 60 min of reaction at room temperature, yttrium SPA beads containing zinc sulphate were added (6 mg/mL, 20 μL) to terminate the PDE reaction. After standing still for 1 hr, the measurement was performed using a scintillation counter (PerkinElmer) and the PDE10A enzyme activity inhibition rate was calculated. The inhibition rate was calculated based on the control containing enzyme and DMSO as 0% and the control without enzyme as 100%.

T1 sequence (Q9Y233 267-1055): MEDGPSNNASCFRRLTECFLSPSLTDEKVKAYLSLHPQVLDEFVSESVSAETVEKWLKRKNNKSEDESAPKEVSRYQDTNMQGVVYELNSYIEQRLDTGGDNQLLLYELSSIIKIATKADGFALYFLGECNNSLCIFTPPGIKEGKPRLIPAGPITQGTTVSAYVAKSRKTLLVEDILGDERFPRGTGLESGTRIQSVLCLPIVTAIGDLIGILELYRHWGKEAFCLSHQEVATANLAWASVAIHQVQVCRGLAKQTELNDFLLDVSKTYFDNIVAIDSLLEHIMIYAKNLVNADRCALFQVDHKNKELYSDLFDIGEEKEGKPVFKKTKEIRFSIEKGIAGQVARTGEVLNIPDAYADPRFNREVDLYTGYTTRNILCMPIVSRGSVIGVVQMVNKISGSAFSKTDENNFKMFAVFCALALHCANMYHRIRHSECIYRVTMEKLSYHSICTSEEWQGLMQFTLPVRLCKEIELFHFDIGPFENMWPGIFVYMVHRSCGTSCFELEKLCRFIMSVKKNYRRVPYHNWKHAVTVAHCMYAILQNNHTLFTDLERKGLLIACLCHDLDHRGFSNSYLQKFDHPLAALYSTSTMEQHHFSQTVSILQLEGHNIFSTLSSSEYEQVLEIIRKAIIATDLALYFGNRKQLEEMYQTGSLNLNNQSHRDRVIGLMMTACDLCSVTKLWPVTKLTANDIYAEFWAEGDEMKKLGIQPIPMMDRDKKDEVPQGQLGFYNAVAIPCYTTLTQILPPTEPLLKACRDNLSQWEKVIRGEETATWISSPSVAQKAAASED

melting point [°C]	inhibition at 0.1 µM [1] [%]	IC50 [1] [µM]	Compound
185 to 187	–	–	COc1cn(-c2ccc(-n3cccn3)cc2F)nc(-c2ccnn2CC(F)(F)F)c1=O [Example 6, 1-[2-fluoro-4-(1H-pyrazol-1-yl)phenyl]-5-methoxy-3-[1-(2,2,2-trifluoroethyl)-1H-pyrazol-5-yl]pyridazin-4(1H)-one]
241 to 243	–	–	COc1cn(-c2ccc(-n3cc(F)c(F)c3)cc2O)nc(-c2ccnn2-c2ccccc2)c1=O [Example 11, 1-[4-(3,4-difluoro-1H-pyrrol-1-yl)-2-hydroxyphenyl]-5-methoxy-3-(1-phenyl-1H-pyrazol-5-yl)pyridazin-4(1H)-one]
–	101	≤ 0.01	COc1cn(-c2ccc3c(c2F)C2(CCC2)C(=O)N3C)nc(-c2ccnn2-c2ccccc2)c1=O [Example 47, 4′-fluoro-5′-[5-methoxy-4-oxo-3-(1-phenyl-1H-pyrazol-5-yl)pyridazin-1(4H)-yl]-1′-methylspiro[cyclobutane-1,3′-indol]-2′(1′H)-one]
–	101	≤ 0.01	COc1cn(-c2ccc3c(c2F)C(C)(C)C(=O)N3C(C)C)nc(-c2ccnn2-c2ccccc2)c1=O [Example 48, 4-fluoro-5-[5-methoxy-4-oxo-3-(1-phenyl-1H-pyrazol-5-yl)pyridazin-1(4H)-yl]-3,3-dimethyl-1-(1-methylethyl)-1,3-dihydro-2H-indol-2-one]
–	101	≤ 0.01	COc1cn(-c2ccc3c(c2F)C2(CCC2)C(=O)N3C(C)C)nc(-c2ccnn2-c2ccccc2)c1=O [Example 49, 4′-fluoro-5′-[5-methoxy-4-oxo-3-(1-phenyl-1H-pyrazol-5-yl)pyridazin-1(4H)-yl]-1′-(1-methylethyl)spiro[cyclobutane-1,3′-indol]-2′(1′H)-one]
–	101	≤ 0.01	COc1cn(-c2ccc3c(c2F)C(C)(C)C(=O)N3C2CCC2)nc(-c2ccnn2-c2ccccc2)c1=O [Example 50, 1-cyclobutyl-4-fluoro-5-[5-methoxy-4-oxo-3-(1-phenyl-1H-pyrazol-5-yl)pyridazin-1(4H)-yl]-3,3-dimethyl-1,3-dihydro-2H-indol-2-one]
–	102	≤ 0.01	COc1cn(-c2cnn(CC3CC3)c2)nc(-c2cc(C)nn2-c2ccccc2)c1=O [Example 51, 1-[1-(cyclopropylmethyl)-1H-pyrazol-4-yl]-5-methoxy-3-(3-methyl-1-phenyl-1H-pyrazol-5-yl)pyridazin-4(1H)-one]
–	101	≤ 0.01	COc1nc(N2CC(F)(F)C(F)(F)C2)ccc1-n1cc(OC)c(=O)c(-c2ccnn2-c2ccccc2)n1 [Example 52, 5-methoxy-1-[2-methoxy-6-(3,3,4,4-tetrafluoropyrrolidin-1-yl)pyridin-3-yl]-3-(1-phenyl-1H-pyrazol-5-yl)pyridazin-4(1H)-one]
–	97	≤ 0.01	COc1nc(-n2cc(F)c(F)c2)ccc1-n1cc(OC)c(=O)c(-c2ccnn2-c2ccccc2)n1 [Example 53, 1-[6-(3,4-difluoro-1H-pyrrol-1-yl)-2-methoxypyridin-3-yl]-5-methoxy-3-(1-phenyl-1H-pyrazol-5-yl)pyridazin-4(1H)-one]
–	101	≤ 0.01	COc1cn(-c2cnn(CC3(C)CC3)c2)nc(-c2ccnn2-c2ccccc2)c1=O [Example 54, 5-methoxy-1-{1-[(1-methylcyclopropyl)methyl]-1H-pyrazol-4-yl}-3-(1-phenyl-1H-pyrazol-5-yl)pyridazin-4(1H)-one]
